Data: patent US11279733B2, “Peptide antibiotics” (priority 2017, dated 2022)
Values after ≈ are worked out from the molar mass of the structure shown. Positions of bridges follow the written chain, without caps; N, C: chain ends. Non-standard residues stand in square brackets, D forms with d. Residues, ends and D or L forms follow the SMILES beside them. *: point of attachment. Decanoyl(3R-OH) = CCCCCCC[C@@H](O)CC(=O)*; dDab = NCC[C@@H](N)C(=O)O; Orn = NCCC[C@H](N)C(=O)O; Dab = NCC[C@H](N)C(=O)O

Tests used:
[1] = In vitro nephrotoxicity, GGT release from primary human kidney cells; assay type: cell-based; conditions: pH 7.4
Description: (§1) hPT cells were derived from whole human kidneys procured by the International Institute for the Advancement of Medicine (Edison, N.J., USA). All tissue was scored by a pathologist as normal (i.e., derived from non-cancerous, non-diseased tissue). Cell isolation procedures were based on those originally described by Todd et al. (1996) and modified (Cummings and Lash, 2000; Cummings et al., 2000) with use of sterile conditions (i.e., all instruments and glassware were autoclaved and all buffers were filtered through a 0.2-μm pore-size filter). Renal cortex and outer stripe were cut into slices, washed with sterile PBS, minced, and the pieces were placed in a trypsinization flask filled with 300 ml of sterile, filtered Hanks' buffer, containing 25 mM NaHCO3, 25 mM HEPES, pH 7.4, 0.5 mM EGTA, 0.2% (w/v) bovine serum albumin, 50 μg/ml gentamicin, 1.3 mg/mL collagenase, and 0.59 mg/ml CaCl2), which was filtered prior to use. Whole kidneys were perfused with Wisconsin medium and kept on ice until they arrived at the laboratory, which was usually within 24 h of removal from the donor.
(§2) All buffers were continuously bubbled with 95% O2/5% CO2 and were maintained at 37° C. Minced cortical pieces from whole kidneys were subjected to collagenase digestion for 60 min, after which the supernatant was filtered through a 70-μm mesh filter to remove tissue fragments, centrifuged at 150×g for 7 min, and the pellet resuspended in Dulbecco's Modified Eagle's Medium: Ham's F12 Medium (DMEM/F12; 1/1). Approximately 5 to 7×10^6 cells were obtained per 1 g of human kidney cortical tissue.
(§3) hPT cells were resuspended in 2 mL of DMEM/F12 and diluted to 500 mL with cell culture medium, which was serum-free and hormonally-defined. Composition of this supplemented medium was based on earlier work establishing optimal conditions for primary culture of rat PT cells (Lash et al., 1995). Basal medium was a 1:1 mixture of DMEM/F12. […] Cells were seeded in a volume of 0.5 ml at a density of 50-100 μg protein per cm^2 (0.5-1.0×10^6 cells/ml) on 24-well plates. Cultures were grown at 37° C. in a humidified incubator under an atmosphere of 95% air/5% CO2 at pH 7.4. Cultures were grown to approximately 80%-90% confluence (generally 5-6 days) prior to experiments. Cells were harvested by either scraping the flasks with a Teflon scraper or by brief incubation with Cellstripper (Cellgro, Herndon, Va., USA) (in Ca^2+- and Mg^2+-free Hanks' buffer).
Release of gamm-glutanyltransferase was assessed according to Orlowski, M., Meister, A. 1963. γ-Glutamyl-p-nitroanilide: A new convenient substrate for determination and study of L- and D-γ-glutamyltranspeptidase activities (Biochim. Biophys. Acta 73: 679-681.)
A 2.5 mM substrate Solution was prepared from 67 mg γ-glutamyl-p-nitroanilide+264 mg glycylglycine in 100 mL of 0.05 M Tris, pH 8.2 (50 mM Tris, pH 8.2: 605 mg Tris/HCl per 100 mL).
For the assay in 96-well plates, 6-μL of sample and 0.3 mL substrate solution were added to each well. The absorbance was measured at 410 nm for the appearance of product, p-nitroanilide (molar extinction=8800 M^−1 cm^−1).

[2] = test system: Neisseria gonorrhoeae; test: MIC determination, Neisseria gonorrhoeae; assay type: cell-based; conditions: for MIC N. gonorrhoeae FA19 ATCC BAA-1838: strain FA19 ATCC BAA-1838; for MIC N. gonorrhoeae F89: strain F89; for MIC N. gonorrhoeae FA1090 A25 ATCC 700825: strain FA1090 A25 ATCC 700825; for MIC N. gonorrhoeae H041: strain H041
Method: Bacteria were either obtained from American Type Culture Collection (ATCC; Manassas, Va., USA) or independent academic clinical isolate collections, as listed in Table 18 below. Bacteria were cultured in Nutrient broth (NB; Bacto Laboratories, catalogue No. 234000) or Mueller Hinton broth (MHB; Bacto Laboratories, catalogue No. 211443) at 37° C. overnight with shaking (˜180 RPM). A sample of each culture was then diluted 50-fold in fresh MHB and incubated at 37° C. for 2-3 h with shaking (˜180 RPM). Compound stock solutions were prepared as 0.64 mg/mL or 2.56 mg/mL in water. The compounds, at twice the final desired concentration, were serially diluted 2-fold across the wells of 96-well plates (Polystyrene, Corning, catalogue No. 3370). Mid-log phase bacterial cultures (after 2-3 h incubation) were diluted to a final concentration of 1×10^6 colony forming units (CFU)/mL, and 50 μL was added to each well giving a final cell density of 5×10^5 and a compound concentration range of 32 μg/mL to 0.015 μg/mL (128-0.06 μg/mL against P. aeruginosa PA9704).

[3] = In vitro nephrotoxicity, LDH release from primary human kidney cells; assay type: cell-based; conditions: pH 7.4
Description: as §1, §2, §3

[4] = test system: P. aeruginosa ATCC 27853; conditions: ATCC 27853
Procedure, shortened: (§4)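 Mid-log cultures grown in Mueller Hinton broth at 37° C were tested by 2-fold broth microdilution at 5×10^5 CFU/mL final. Compounds were dissolved in water and tested over a final range of 32 to 0.015 μg/mL.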

[5] = test system: K. pneumoniae ATCC 700603, MDR; conditions: ATCC 700603
Procedure, shortened: as §4

[6] = test system: K. pneumoniae ATCC 13883; conditions: ATCC 13883
Procedure, shortened: as §4

[7] = test system: K. pneumoniae ATCC BAA-2146, NDM-1 pos; conditions: ATCC BAA-2146
Procedure, shortened: as §4

[8] = test system: A. baumannii ATCC 19606; conditions: ATCC 19606
Procedure, shortened: as §4

[9] = test system: P. aeruginosa GN_105, PmxR; conditions: GN 105, PmxR
Procedure, shortened: as §4

[10] = test system: K. pneumoniae GN_102 PmxR; conditions: GN 102 PmxR
Procedure, shortened: as §4

[11] = test system: A. baumannii GN_093 PmxR; conditions: GN 093 PmxR
Procedure, shortened: as §4

[12] = test system: K. pneumoniae GN_106, PmxR; conditions: GN 106, PmxR
Procedure, shortened: as §4

[13] = test system: E. coli ATCC 25922; conditions: ATCC 25922
Procedure, shortened: as §4

[14] = test system: S. aureus ATCC 25923, MSSA; conditions: ATCC 25923
Procedure, shortened: as §4

[15] = test system: P. aeruginosa GN_043, PmxR; conditions: polymyxin-resistant
Procedure, shortened: as §4

| SMILES | CC50 [1] | MIC N. gonorrhoeae FA19 ATCC BAA-1838 [2] | CC50 [3] | MIC P. aeruginosa ATCC 27853 [4] | MIC K. pneumoniae ATCC 700603, MDR [5] | MIC K. pneumoniae ATCC 13883 [6] | MIC K. pneumoniae ATCC BAA-2146, NDM-1 pos [7] | MIC A. baumannii ATCC 19606 [8] | MIC P. aeruginosa GN_105, PmxR [9] | MIC K. pneumoniae GN_102 PmxR [10] | MIC A. baumannii GN_093 PmxR [11] | MIC K. pneumoniae GN_106, PmxR [12] | MIC E. coli ATCC 25922 [13] | MIC S. aureus ATCC 25923, MSSA [14] | MIC P. aeruginosa GN_043, PmxR [15] | MIC N. gonorrhoeae F89 [2] | MIC N. gonorrhoeae FA1090 A25 ATCC 700825 [2] | MIC N. gonorrhoeae H041 [2] | also measured |
| --- | --- | --- | --- | --- | --- | --- | --- | --- | --- | --- | --- | --- | --- | --- | --- | --- | --- | --- | --- |
| CCCCCCC[C@@H](O)CC(=O)N[C@H](CCN)C(=O)N[C@H]1CCNC(=O)[C@H](CC(C)C)NC(=O)[C@H](CCCN)NC(=O)[C@H](CCN)NC(=O)[C@H](CC(C)C)NC(=O)[C@@H](Cc2ccccc2)NC(=O)[C@H](CCN)NC1=O [compound 988, 3(R)OH-nC9CO-D-Dab-cyc[L-Dab-L-Dab-D-Phe-L-Leu-L-Dab-L-Orn-L-Leu]] ({Decanoyl(3R-OH)}-[dDab][Dab][Dab][dF]L[Dab][Orn]L; lactam 2-C) | > 128 µg/mL | 0.78 µg/mL (≈ 0.737 µM) | 118 µg/mL (≈ 111 µM) | 2 µg/mL (≈ 1.89 µM) | 2 µg/mL (≈ 1.89 µM) | 2 µg/mL (≈ 1.89 µM) | 2 µg/mL (≈ 1.89 µM) | 4 µg/mL (≈ 3.78 µM) | 2 µg/mL (≈ 1.89 µM) | 2 µg/mL (≈ 1.89 µM) | 8 µg/mL (≈ 7.56 µM) | 2 µg/mL (≈ 1.89 µM) | 2 µg/mL (≈ 1.89 µM) | 16 µg/mL (≈ 15.1 µM) | 2 µg/mL (≈ 1.89 µM) |  |  |  |  |
| CCCCCCC[C@@H](O)CC(=O)N[C@H](CCN)C(=O)N[C@H]1CCNC(=O)[C@H](CC(C)C)NC(=O)[C@H](CCN)NC(=O)[C@H](CCCN)NC(=O)[C@H](CC(C)C)NC(=O)[C@@H](Cc2ccccc2)NC(=O)[C@H](CCN)NC1=O [compound 991, 3(R)OH-nC9CO-D-Dab-cyc[L-Dab-L-Dab-D-Phe-L-Leu-L-Orn-L-Dab-L-Leu]] ({Decanoyl(3R-OH)}-[dDab][Dab][Dab][dF]L[Orn][Dab]L; lactam 2-C) | > 128 µg/mL | 0.39 µg/mL (≈ 0.368 µM) | 107 µg/mL (≈ 101 µM) |  |  |  |  |  |  |  |  |  |  |  |  | 1.3 µg/mL (≈ 1.23 µM) | 1.56 µg/mL (≈ 1.47 µM) | 2.08 µg/mL (≈ 1.97 µM) | MIC, P. aeruginosa ATCC 27853 [4]: 2 µg/mL (≈ 1.89 µM); MIC, K. pneumoniae ATCC 700603, MDR [5]: 4 µg/mL (≈ 3.78 µM); MIC, K. pneumoniae ATCC 13883 [6]: 4 µg/mL (≈ 3.78 µM); MIC, K. pneumoniae ATCC BAA-2146, NDM-1 pos [7]: 4 µg/mL (≈ 3.78 µM); MIC, A. baumannii ATCC 19606 [8]: 4 µg/mL (≈ 3.78 µM); MIC, P. aeruginosa PA9704, PmxR [9]: 1 µg/mL (≈ 0.945 µM); MIC, K. pneumoniae Cl Koprana 10065 0661:1, PmxR [10]: 1 µg/mL (≈ 0.945 µM); MIC, A. baumannii Cl Ptyela 10073 4512:2, PmxR [11]: 8 µg/mL (≈ 7.56 µM); MIC, K. pneumoniae Cl 138-16347-20362, PmxR [12]: 2 µg/mL (≈ 1.89 µM); MIC, E. coli ATCC 25922 [13]: 4 µg/mL (≈ 3.78 µM); MIC, S. Aureus ATCC 25923, MSSA [14]: 8 µg/mL (≈ 7.56 µM); MIC, P. aeruginosa FADDI-PA070, PmxR ([15]; Table 5): 2 µg/mL (≈ 1.89 µM) |
| CCCCCCC[C@@H](O)CC(=O)N[C@H](CCN)C(=O)N[C@H]1CCNC(=O)[C@H](Cc2c[nH]c3ccccc23)NC(=O)[C@H](CCN)NC(=O)[C@H](CCN)NC(=O)[C@H](CC(C)C)NC(=O)[C@@H](Cc2ccccc2)NC(=O)[C@H](CCN)NC1=O [compound 6509, 3(R)OH-nC9CO-D-Dab-cyc[L-Dab-L-Dab-D-Phe-L-Leu-L-Dab-L-Dab-L-Trp]] ({Decanoyl(3R-OH)}-[dDab][Dab][Dab][dF]L[Dab][Dab]W; lactam 2-C) | > 128 µg/mL | 0.78 µg/mL (≈ 0.698 µM) | > 128 µg/mL | 2 µg/mL (≈ 1.79 µM) | 2 µg/mL (≈ 1.79 µM) | 4 µg/mL (≈ 3.58 µM) | 4 µg/mL (≈ 3.58 µM) | 8 µg/mL (≈ 7.16 µM) | 1 µg/mL (≈ 0.895 µM) | 4 µg/mL (≈ 3.58 µM) | 8 µg/mL (≈ 7.16 µM) | 4 µg/mL (≈ 3.58 µM) | 4 µg/mL (≈ 3.58 µM) | 4 µg/mL (≈ 3.58 µM) | 1 µg/mL (≈ 0.895 µM) | 1.04 µg/mL (≈ 0.931 µM) | 0.65 µg/mL (≈ 0.582 µM) | 1.69 µg/mL (≈ 1.51 µM) |  |
| CCCCCCC[C@@H](O)CC(=O)N[C@H](CCN)C(=O)N[C@H]1CCNC(=O)[C@H](CC(C)C)NC(=O)[C@H](CCCNC(=N)N)NC(=O)[C@H](CCN)NC(=O)[C@H](CC(C)C)NC(=O)[C@@H](Cc2ccccc2)NC(=O)[C@H](CCN)NC1=O [compound 8643, 3(R)OH-nC9CO-D-Dab-cyc[L-Dab-L-DAB-D-Phe-L-Leu-L-Dab-L-Arg-L-Leu]] ({Decanoyl(3R-OH)}-[dDab][Dab][Dab][dF]L[Dab]RL; lactam 2-C) | > 128 µg/mL | 1.56 µg/mL (≈ 1.42 µM) | > 128 µg/mL | 2 µg/mL (≈ 1.82 µM) | 2 µg/mL (≈ 1.82 µM) | 2 µg/mL (≈ 1.82 µM) | 2 µg/mL (≈ 1.82 µM) | 4 µg/mL (≈ 3.63 µM) |  | 2 µg/mL (≈ 1.82 µM) | 16 µg/mL (≈ 14.5 µM) | 2 µg/mL (≈ 1.82 µM) | 1 µg/mL (≈ 0.909 µM) | 16 µg/mL (≈ 14.5 µM) | 2 µg/mL (≈ 1.82 µM) |  |  |  |  |
